Drawing on US8835445B2, “Dihydrofolate reductase inhibitors” (Trius Therapeutics, Inc., priority 2010, dated 2014), this text covers MIC and Ki for twelve molecules.

For orientation: Ki means a dissociation constant, usually derived from enzyme kinetics or from competition with a known ligand. A higher Ki goes with weaker binding.

One experiment concerns S. aureus. The experiment is described as follows: Antibacterial activity (MIC), whole-cell bacterial growth inhibition. Format: cell-based, Staphylococcus aureus. The conditions noted are these: Staphylococcus aureus. An excerpt: Antibacterial activity as measured by the minimal inhibitory concentrations (MIC) and minimal bactericidal concentrations of compounds are well known (see., e.g., National Committee for Clinical Laboratory Standards 2000 Performance standards for antimicrobial disk susceptibility tests: approved standard, 7th ed. M2-A7, vol. 20, no. 1, Committee for Clinical Laboratory Standards, Wayne, Pa.) In vitro testing for antibacterial activity may be accomplished through use of a whole-cell bacterial growth inhibition assay. For example, an […] assay identifies a substance that inhibits bacterial growth. Microtiter plates are prepared with serial dilutions of the test compound, adding to the preparation a given amount of growth substrate, and providing a preparation of bacteria. Inhibition of bacterial growth is determined, for example, by observing changes in optical densities of the bacterial cultures. Inhibition of bacterial growth is determined, for example, by comparing (in the presence and absence of a test compound) the rate of growth or the absolute growth of bacterial cells. Inhibition includes a reduction of one of the above measurements by at least 20%.

For another experiment, the target named is human DHFR (Homo sapiens (Human), UniProt P00374). Put plainly: DHFR enzymatic inhibition (Ki), human DHFR. The class given is biochemical.
The next experiment addresses S. aurues DHFR (Staphylococcus aureus, UniProt P0A017). Put plainly: biochemical. The class given is biochemical.
Setting [1] is: S. aureus in 20% serum, read-out: MIC in μg/ml S. aureus in 20% serum.
The mark [2] stands for this setting: S. aureus, read-out: MIC in μg/ml S. aureus.

Values after ≈ are worked out from the molar mass of the structure shown. Where two headings read alike, the source gives them in different places.

human DHFR, sequence (P00374 whole entry): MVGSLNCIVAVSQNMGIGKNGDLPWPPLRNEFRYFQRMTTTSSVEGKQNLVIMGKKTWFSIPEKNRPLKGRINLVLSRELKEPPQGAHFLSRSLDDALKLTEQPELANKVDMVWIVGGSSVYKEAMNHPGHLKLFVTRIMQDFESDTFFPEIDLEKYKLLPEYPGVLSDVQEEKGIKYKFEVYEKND

On to `COc1ccc2nc(SCCC(C)(F)F)n(-c3ccc4c(N)nc(N)nc4c3)c2c1` [Compound 20, 7-(2-(3,3-difluorobutylthio)-6-methoxy-1H-benzo-[d]imidazol-1-yl)quinazoline-2,4-diamine], for which the MIC with S. aureus (setting [1]) is 4 µg/mL (≈ 9.29 µM); with S. aureus (setting [2]), 0.5 µg/mL (≈ 1.16 µM). Also, the figures for the Ki on human DHFR and at S. aurues DHFR (S. aureus DHFR) were 586 nM and 0.12 nM, respectively.

As to `Cc1cc2c(N)nc(N)nc2cc1-c1ccc(N)cc1` [Compound 5, 7-(4-aminophenyl)-6-methylquinazoline-2,4-diamine], the MIC with S. aureus (setting [1]) and in the experiment with S. aureus (setting [2]) was 1 µg/mL (≈ 3.77 µM) each time. In addition, the figures for the Ki at human DHFR and at S. aurues DHFR (S. aureus DHFR) were 138 nM and 0.89 nM, respectively.

In the case of `CCOc1ccc(-c2cccc(NS(C)(=O)=O)c2)cc1-c1ccc2c(N)nc(N)nc2c1` [Compound 30, N-(3′-(2,4-diaminoquinoazlin-7-yl)-4′-ethoxybiphenyl-3-yl)methanesulfonamide], the MIC in the experiment with S. aureus (setting [1]) was 2 µg/mL (≈ 4.45 µM); in the experiment with S. aureus (setting [2]), not above 0.5 µg/mL. Also, the Ki at human DHFR is 5.8 nM; on S. aurues DHFR (S. aureus DHFR), 0.02 nM.

For the molecule `CCOc1ccc2ccccc2c1-c1cc2nc(N)nc(N)c2cc1C` [Compound 31, 7-(2-ethoxynaphthalen-1-yl)-6-methylquinazoline-2,4-diamine], the MIC in the experiment with S. aureus (setting [1]) is 0.5 µg/mL (≈ 1.45 µM); in the experiment with S. aureus (setting [2]), not above 0.125 µg/mL. Also, the Ki on human DHFR turned out to be 4.5 nM; at S. aurues DHFR (S. aureus DHFR) it was 0.026 nM.

Consider `COCCn1c(-c2ccc3c(N)nc(N)nc3c2)nc2cc(C)c(C)cc21` [Compound 14, 7-(1-(2-methoxyethyl)-5,6-dimethyl-1H-benzo[d]-imidazol-2-yl)quinazoline-2,4-diamine], for which the MIC with S. aureus (setting [1]) and in the experiment on S. aureus (setting [2]) was 4 µg/mL (≈ 11 µM) in each case. For the same molecule, the Ki on human DHFR turned out to be 263 nM; on S. aurues DHFR (S. aureus DHFR), 1.6 nM.

Consider `Cc1cc2nc(C3CC3)n(-c3ccc4c(N)nc(N)nc4c3)c2cc1C` [Compound 15, 7-(2-cyclopropyl-5,6-dimethyl-1H-benzo[d]-imidazol-1-yl)quinazoline-2,4-diamine], for which the figures for the MIC in the experiment on S. aureus (setting [1]) and with S. aureus (setting [2]) were 1 µg/mL (≈ 2.9 µM) and not above 0.5 µg/mL, respectively. The values for the Ki at human DHFR and at S. aurues DHFR (S. aureus DHFR) were 1160 nM and 0.14 nM, respectively.

Regarding `COc1ccc(OC)c(-c2ccc3c(N)nc(N)nc3c2)c1` [Compound 3, 7-(2,5-dimethoxyphenyl) quinazoline-2,4-diamine], the MIC in the experiment with S. aureus (setting [1]) was determined as 8 µg/mL (≈ 27 µM); with S. aureus (setting [2]), 4 µg/mL (≈ 13.5 µM). For the same molecule, the Ki was 345 nM on human DHFR and 4 nM at S. aurues DHFR.

Regarding `COc1ccc(OC)c(-c2cc3nc(N)nc(N)c3cc2C)c1` [Compound 8, 7-(2,5-dimethoxyphenyl)-6-methylquin-azoline-2,4-diamine], the MIC in the experiment on S. aureus (setting [1]) and in the experiment on S. aureus (setting [2]) was 1 µg/mL (≈ 3.22 µM) each time. Moreover, the Ki at human DHFR turned out to be 27.5 nM; on S. aurues DHFR it was 0.66 nM.

Regarding `COC(=O)c1ccc2c(c1)nc(-c1nccs1)n2-c1ccc2c(N)nc(N)nc2c1` [Compound 32, methyl 1-(2,4-diaminoquinazolin-7-yl)-2-(thiazol-2-yl)-1H-benzo[d]imidazole-5-carboxylate], the MIC with S. aureus (setting [1]) turned out to be 2 µg/mL (≈ 4.79 µM); in the experiment on S. aureus (setting [2]), 0.25 µg/mL (≈ 0.599 µM). The values for the Ki at human DHFR and on S. aurues DHFR (S. aureus DHFR) were 53.1 nM and 0.021 nM, respectively.

Regarding `Cc1cc2nc(-c3nccs3)n(-c3cc4nc(N)nc(N)c4cc3Cl)c2cc1C` [Compound 25, 6-chloro-7-(5,6-dimethyl-2-(thiazol-2-yl)-1H-benzo[d]imidazol-1-yl)quinazoline-2,4-diamine], the MIC was 1 µg/mL (≈ 2.37 µM) in the experiment on S. aureus (setting [1]) and not above 0.125 µg/mL in the experiment with S. aureus (setting [2]). In addition, the values for the Ki at human DHFR and on S. aurues DHFR (S. aureus DHFR) were 7.6 nM and 0.011 nM, respectively.

On to `COc1cc(-c2cc3nc(N)nc(N)c3cc2C)c(Cl)cn1` [Compound 28, 7-(5-chloro-2-methoxypyridin-4-yl)-6-methylquin-azoline-2,4-diamine], for which the MIC with S. aureus (setting [1]) was determined as 1 µg/mL (≈ 3.17 µM); in the experiment on S. aureus (setting [2]), 0.5 µg/mL (≈ 1.58 µM). Moreover, the Ki was 56 nM at human DHFR and 0.72 nM on S. aurues DHFR (S. aureus DHFR).

With `CC(=O)c1cccc(-c2cc3nc(N)nc(N)c3cc2C)c1` [Compound 7, 1-(3-(2,4-diamino-6-methylquinazolin-7-yl)-phenyl)ethanone], the MIC stood at 1 µg/mL (≈ 3.42 µM) in the experiment on S. aureus (setting [1]) and 0.5 µg/mL (≈ 1.71 µM) with S. aureus (setting [2]). The inhibitory constant (Ki) at human DHFR stood at 26.3 nM; at S. aurues DHFR (S. aureus DHFR) it was 0.48 nM.
